From ChEMBL document CHEMBL1201862, “PubChem BioAssay data set” (2004)
Calls of active or inactive are those of the source.

How the values were obtained:
[1] = T. cruzi growth inhibition in host cells, dose response, cell-based, plate reader, dry powder, set 2 (AID 652275); format: functional
[2] = inhibitors of EBV LMP1 NF-kappaB signaling – cell-based, luciferase reporter, luminescence, dry powder, set 2, dose response (AID 624376); format: functional
Caspase-6 = molecular target: T1, Caspase-6 (Homo sapiens, UniProt P55212); experiment: inhibition of CASP6 peptide cleavage – biochemical, VEID-R110 fluorescence, cherry-pick, dose response (AID 720632)
T1 sequence (P55212 whole entry): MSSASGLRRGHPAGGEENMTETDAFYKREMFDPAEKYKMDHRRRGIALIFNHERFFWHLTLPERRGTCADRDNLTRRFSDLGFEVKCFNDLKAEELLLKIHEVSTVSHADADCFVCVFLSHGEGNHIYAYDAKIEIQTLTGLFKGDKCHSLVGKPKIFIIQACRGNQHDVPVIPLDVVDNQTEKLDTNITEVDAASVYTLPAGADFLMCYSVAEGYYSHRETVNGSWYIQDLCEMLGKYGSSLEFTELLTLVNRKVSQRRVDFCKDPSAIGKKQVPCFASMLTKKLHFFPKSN

Caspase-7 = Caspase-7 (Homo sapiens, UniProt P55210); experiment: caspase-7 enzyme inhibition, selectivity check – biochemical, DEVD-R110 fluorescence, cherry-pick, selectivity assay for caspase-6 inhibitor project, dose response (AID 743295); format: functional
Chain of Caspase-7 (P55210 24-198 limits assumed): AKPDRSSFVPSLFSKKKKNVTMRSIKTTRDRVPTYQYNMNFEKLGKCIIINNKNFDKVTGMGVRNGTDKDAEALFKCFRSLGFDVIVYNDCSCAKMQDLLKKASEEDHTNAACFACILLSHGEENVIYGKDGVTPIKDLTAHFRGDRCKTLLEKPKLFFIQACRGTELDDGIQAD
Chain of Caspase-7 (P55210 207-303 limits assumed): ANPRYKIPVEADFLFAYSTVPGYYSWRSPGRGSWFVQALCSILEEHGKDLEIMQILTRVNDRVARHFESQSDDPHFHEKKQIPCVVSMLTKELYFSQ

[3] = molecular target: T2, Sentrin-specific protease 8 (Homo sapiens, UniProt Q96LD8); format: functional
T2 sequence (Q96LD8 whole entry): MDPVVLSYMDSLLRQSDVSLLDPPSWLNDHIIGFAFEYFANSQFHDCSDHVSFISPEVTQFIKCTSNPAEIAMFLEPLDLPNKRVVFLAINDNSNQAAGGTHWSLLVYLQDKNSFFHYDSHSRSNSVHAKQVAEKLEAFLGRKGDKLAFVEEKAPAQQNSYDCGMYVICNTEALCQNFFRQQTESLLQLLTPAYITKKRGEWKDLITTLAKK

Caspase-9 = molecular target: T3, Caspase-9 (Homo sapiens, UniProt P55211); experiment: inhibitors of purified CASP9 protease – biochemical, fluorescence, plate reader, cherry-picked samples, selectivity assay for caspase-6 inhibitor project, dose response (AID 743293)
T3 sequence (P55211 whole entry): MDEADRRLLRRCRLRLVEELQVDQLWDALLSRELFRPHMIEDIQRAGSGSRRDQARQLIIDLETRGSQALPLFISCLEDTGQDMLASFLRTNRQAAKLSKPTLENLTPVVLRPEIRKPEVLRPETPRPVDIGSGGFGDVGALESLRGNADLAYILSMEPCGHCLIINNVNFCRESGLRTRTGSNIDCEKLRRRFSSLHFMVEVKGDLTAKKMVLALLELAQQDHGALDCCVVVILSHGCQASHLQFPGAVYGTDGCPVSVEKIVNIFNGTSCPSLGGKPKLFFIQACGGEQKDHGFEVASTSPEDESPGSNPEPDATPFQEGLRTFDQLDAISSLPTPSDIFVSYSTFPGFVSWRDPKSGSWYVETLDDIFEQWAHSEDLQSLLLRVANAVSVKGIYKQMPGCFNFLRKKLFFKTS

Caspase-3 [4] = molecular target: T4, Caspase-3 (Homo sapiens, UniProt P42574); experiment: Dose-response confirmation of uHTS inhibitor hits of Sentrin-Specific Protease 8 in a Caspase-3 Fluorescence assay.; format: functional
T4 sequence (P42574 whole entry): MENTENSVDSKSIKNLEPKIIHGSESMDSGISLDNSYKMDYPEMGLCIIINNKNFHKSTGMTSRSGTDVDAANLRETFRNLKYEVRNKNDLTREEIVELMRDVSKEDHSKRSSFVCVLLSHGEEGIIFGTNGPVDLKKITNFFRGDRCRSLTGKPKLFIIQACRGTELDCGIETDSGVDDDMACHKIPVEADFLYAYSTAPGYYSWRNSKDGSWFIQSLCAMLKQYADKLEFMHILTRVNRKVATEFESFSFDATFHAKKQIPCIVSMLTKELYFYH

Caspase-3 [5] = molecular target: T4, Caspase-3; experiment: human caspase-3 protease activity blockade – biochemical, fluorescence, cherry-picked samples, selectivity assay for caspase-6 allosteric inhibitor project, dose response (AID 743291)
[6] = molecular target: T2, Sentrin-specific protease 8; format: functional; remark: listed apart in the source
Caspase-8 = Caspase-8 (Homo sapiens, UniProt Q14790); experiment: inhibitors of purified CASP8 protease – biochemical, Z-IETD-R110 fluorescence, cherry-picked samples, selectivity assay for caspase-6 inhibitor project, dose response (AID 743294)
Chain of Caspase-8 (Q14790 217-374 limits assumed): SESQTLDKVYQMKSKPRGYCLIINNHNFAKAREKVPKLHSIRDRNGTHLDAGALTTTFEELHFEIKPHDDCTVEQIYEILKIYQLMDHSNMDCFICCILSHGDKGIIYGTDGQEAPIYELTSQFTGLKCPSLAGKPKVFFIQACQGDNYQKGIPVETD
Chain of Caspase-8 (Q14790 385-479 limits assumed): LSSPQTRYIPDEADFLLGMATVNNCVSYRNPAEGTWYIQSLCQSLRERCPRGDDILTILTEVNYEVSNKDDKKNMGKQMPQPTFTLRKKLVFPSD

Caspase-3 [7] = molecular target: T4, Caspase-3; format: functional
[8] = molecular target: T5, Sentrin-specific protease 7 (Homo sapiens, UniProt Q9BQF6); format: functional;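 also: Luminescence-based dose-response confirmation of ultra-high-throughput screening hits, measuring inhibition of SENP7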
T5 sequence (Q9BQF6 whole entry): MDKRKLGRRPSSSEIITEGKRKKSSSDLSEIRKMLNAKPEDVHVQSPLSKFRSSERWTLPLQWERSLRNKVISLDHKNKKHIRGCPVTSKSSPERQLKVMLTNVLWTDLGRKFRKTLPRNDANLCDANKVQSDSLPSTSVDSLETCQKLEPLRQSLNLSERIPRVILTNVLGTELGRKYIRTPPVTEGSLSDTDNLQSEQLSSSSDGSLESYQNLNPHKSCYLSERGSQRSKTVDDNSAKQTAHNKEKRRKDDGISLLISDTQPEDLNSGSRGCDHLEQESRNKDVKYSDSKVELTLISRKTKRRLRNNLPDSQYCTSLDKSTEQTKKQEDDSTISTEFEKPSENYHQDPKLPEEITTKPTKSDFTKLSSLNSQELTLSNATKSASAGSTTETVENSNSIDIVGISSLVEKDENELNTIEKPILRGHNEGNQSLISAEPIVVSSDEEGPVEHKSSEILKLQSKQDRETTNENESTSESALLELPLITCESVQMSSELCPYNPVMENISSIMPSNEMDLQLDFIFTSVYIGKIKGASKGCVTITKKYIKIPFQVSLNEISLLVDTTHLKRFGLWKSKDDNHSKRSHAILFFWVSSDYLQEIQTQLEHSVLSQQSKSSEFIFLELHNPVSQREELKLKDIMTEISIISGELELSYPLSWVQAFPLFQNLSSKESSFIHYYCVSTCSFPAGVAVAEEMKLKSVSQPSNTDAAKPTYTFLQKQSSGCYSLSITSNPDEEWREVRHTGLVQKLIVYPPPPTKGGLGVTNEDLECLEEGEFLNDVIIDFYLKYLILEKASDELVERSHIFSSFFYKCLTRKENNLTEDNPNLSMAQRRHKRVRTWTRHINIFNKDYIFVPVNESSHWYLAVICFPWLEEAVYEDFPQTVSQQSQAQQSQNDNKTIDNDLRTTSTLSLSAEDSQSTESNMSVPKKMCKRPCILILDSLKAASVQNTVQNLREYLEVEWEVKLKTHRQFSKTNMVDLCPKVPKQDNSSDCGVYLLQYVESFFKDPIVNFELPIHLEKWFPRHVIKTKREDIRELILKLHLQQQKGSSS

[9] = molecular target: T6, Sentrin-specific protease 6 (Homo sapiens, UniProt Q9GZR1); format: functional;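 also: Luminescence-based dose-response confirmatory assay of SENP6 inhibition, following up an ultra-high-throughput screen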
T6 sequence (Q9GZR1 whole entry): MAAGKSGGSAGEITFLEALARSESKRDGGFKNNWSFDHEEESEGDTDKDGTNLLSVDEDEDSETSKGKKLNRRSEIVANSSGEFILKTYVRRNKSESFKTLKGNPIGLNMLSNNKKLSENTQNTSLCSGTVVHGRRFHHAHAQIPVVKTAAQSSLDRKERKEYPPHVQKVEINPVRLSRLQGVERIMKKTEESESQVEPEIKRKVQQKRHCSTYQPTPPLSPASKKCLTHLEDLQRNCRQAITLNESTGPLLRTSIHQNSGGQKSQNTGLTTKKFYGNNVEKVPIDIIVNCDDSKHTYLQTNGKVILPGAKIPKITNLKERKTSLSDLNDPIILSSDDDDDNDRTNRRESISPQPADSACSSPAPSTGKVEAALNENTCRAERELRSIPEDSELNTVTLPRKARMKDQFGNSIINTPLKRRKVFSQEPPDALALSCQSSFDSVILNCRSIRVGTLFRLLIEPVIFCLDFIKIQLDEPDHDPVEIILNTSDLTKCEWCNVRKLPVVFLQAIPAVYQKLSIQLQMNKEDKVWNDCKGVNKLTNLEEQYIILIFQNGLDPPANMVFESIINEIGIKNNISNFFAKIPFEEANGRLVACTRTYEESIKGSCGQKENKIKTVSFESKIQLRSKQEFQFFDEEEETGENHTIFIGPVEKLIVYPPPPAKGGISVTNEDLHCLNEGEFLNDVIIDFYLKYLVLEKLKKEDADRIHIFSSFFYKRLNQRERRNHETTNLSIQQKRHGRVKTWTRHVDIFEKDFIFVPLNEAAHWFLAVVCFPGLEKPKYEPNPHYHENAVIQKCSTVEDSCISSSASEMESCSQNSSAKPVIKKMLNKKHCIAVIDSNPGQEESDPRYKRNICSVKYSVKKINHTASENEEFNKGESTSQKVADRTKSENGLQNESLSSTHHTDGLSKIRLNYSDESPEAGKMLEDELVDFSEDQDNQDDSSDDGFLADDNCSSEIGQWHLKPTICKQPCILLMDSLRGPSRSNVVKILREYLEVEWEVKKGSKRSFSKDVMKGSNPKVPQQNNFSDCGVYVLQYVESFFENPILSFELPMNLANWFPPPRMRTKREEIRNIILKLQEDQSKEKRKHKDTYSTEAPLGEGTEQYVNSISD

[10] = molecular target: T2, Sentrin-specific protease 8; format: functional; remark: listed apart in the source
[11] = molecular target: Botulinum neurotoxin type F (Clostridium botulinum, UniProt P30996); experiment: High-throughput multiplex microsphere dose response for inhibitors of toxin protease, specifically Botulinum neurotoxin light chain F protease, compounds from Cherry Pick 02.; format: functional; conditions: read-out: EC50_MICROM
Chain of Botulinum neurotoxin type F (P30996 1-436 limits assumed): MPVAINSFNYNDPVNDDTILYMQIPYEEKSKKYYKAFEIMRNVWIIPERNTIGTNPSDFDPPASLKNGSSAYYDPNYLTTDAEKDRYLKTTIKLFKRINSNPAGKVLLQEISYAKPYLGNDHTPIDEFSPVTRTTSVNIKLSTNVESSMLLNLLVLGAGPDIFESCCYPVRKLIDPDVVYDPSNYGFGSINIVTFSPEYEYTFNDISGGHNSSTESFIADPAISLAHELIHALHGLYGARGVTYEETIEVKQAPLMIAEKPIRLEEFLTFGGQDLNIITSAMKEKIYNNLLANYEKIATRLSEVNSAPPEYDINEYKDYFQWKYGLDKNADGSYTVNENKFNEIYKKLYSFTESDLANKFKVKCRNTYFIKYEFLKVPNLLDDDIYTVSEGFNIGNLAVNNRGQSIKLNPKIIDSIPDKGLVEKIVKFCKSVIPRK

[12] = Inhibition of Plasmodium falciparum NF54 Measured in Cell-Based System Using Plate Reader - 2138-11_Inhibitor_Dose_CherryPick_Activity.; format: functional
[13] = antileishmanial activity on axenic amastigotes – plate reader, cherry pick, dose response (AID 651891); format: functional, cell-based; conditions: Leishmania donovani
[14] = African trypanosome bloodstream form growth inhibition – STIB900 strain, plate reader, cherry pick, dose response (AID 651893); format: functional, cell-based, Trypanosoma brucei rhodesiense; conditions: Trypanosoma brucei
[15] = mouse fibroblast viability loss – cell-based, cherry-pick samples, set 2, cytotoxicity control for T. cruzi growth inhibitor project, dose response (AID 651817); format: functional; conditions: NIH3T3
[16] = intracellular Trypanosoma cruzi inhibitors in host cells – cell-based, plate reader, cherry-pick samples, set 3, dose response (AID 651818); format: functional;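 also: compounds incubated with infected cells for about four days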
[17] = anti-trypanosomal activity in BESM host cells – imaging, CA-I/72 strain, bovine embryo skeletal muscle, dry powder, dose response (AID 651885); format: functional, cell-based
[18] = L6 myocyte viability loss – cell-based, plate reader, cherry-pick, cytotoxicity control, dose response (AID 651896); format: functional
[19] = Inhibition of T. cruzi Tulahuen strain amastigotes in L-6 muscle cells Measured in Cell-Based and Microorganism Combination System Using Plate Reader - 2138-03_Inhibitor_Dose_CherryPick_Activity.; format: functional; conditions: Rattus norvegicus, L6
[20] = molecular target: Dual specificity tyrosine-phosphorylation-regulated kinase 1A (Rattus norvegicus, UniProt Q63470); format: biochemical, Homo sapiens
Beta-lactamase [21] = molecular target: Beta-lactamase (Salmonella choleraesuis (strain SC-B67), UniProt Q5J463); experiment: Epi-absorbance-based counterscreen for selective VIM-2 inhibitors: dose response biochemical high throughput screening assay to identify inhibitors of TEM-1 serine-beta-lactamase.
Chain of Beta-lactamase (Salmonella choleraesuis (strain SC-B67), UniProt Q5J463) (Q5J463 whole entry): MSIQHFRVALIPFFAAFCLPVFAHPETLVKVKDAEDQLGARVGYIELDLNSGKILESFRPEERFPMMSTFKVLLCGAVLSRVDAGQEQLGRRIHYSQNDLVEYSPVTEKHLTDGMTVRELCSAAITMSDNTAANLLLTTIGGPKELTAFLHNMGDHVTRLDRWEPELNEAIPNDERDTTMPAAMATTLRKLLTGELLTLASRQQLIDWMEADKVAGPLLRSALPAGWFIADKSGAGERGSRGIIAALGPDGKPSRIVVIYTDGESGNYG

Beta-lactamase [22] = molecular target: T7, Beta-lactamase (Pseudomonas aeruginosa, UniProt Q79MP6); experiment: inhibition of IMP-1 beta-lactamase activity – biochemical, epi-absorbance, selectivity assay for VIM-2 inhibitor project, dose response (AID 1920)
T7 sequence (Q79MP6 whole entry): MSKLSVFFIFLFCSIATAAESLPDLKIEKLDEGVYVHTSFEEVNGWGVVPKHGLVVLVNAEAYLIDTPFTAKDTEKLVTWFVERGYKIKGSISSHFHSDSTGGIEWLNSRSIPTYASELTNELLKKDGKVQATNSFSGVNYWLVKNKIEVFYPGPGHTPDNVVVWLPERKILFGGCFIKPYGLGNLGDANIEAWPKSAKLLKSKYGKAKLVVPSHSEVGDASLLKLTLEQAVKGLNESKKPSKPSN

Beta-lactamase [23] = molecular target: T7, Beta-lactamase; experiment: […] counterscreen for selective VIM-2 inhibitors: dose response biochemical high throughput screening assay to identify inhibitors of IMP-1 metallo-beta-lactamase.
Albumin = Albumin (Bos taurus, UniProt P02769); experiment: Counterscreen for inhibitors of T-cell receptor (TCR)-CD3 interaction: Fluorescence-based biochemical high throughput dose response assay to identify inhibitors of T-cell receptor (TCR)-CD3 interaction using a TAMRA-labeled BSA probe.; format: functional
Chain of Albumin (P02769 whole entry): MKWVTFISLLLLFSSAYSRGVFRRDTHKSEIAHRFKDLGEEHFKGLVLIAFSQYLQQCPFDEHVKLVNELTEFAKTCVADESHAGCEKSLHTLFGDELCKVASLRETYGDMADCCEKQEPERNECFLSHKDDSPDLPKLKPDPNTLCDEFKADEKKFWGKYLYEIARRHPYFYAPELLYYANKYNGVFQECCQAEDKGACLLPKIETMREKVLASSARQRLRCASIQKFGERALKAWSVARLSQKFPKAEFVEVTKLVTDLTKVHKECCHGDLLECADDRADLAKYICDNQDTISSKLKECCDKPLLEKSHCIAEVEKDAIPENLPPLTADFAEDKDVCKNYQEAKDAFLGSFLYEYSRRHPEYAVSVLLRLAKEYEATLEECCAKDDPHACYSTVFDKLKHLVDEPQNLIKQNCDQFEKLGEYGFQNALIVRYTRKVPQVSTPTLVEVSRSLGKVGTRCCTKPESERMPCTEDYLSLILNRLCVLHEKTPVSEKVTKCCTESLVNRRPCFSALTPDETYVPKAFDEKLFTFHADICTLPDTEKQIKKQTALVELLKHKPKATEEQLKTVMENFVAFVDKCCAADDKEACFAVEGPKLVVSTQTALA

Nonstructural protein 1 = Nonstructural protein 1 (Influenza A virus, UniProt Q194T2); format: functional, Influenza A virus (A/California/07/2009(H1N1))
Chain of Nonstructural protein 1 (Q194T2 whole entry): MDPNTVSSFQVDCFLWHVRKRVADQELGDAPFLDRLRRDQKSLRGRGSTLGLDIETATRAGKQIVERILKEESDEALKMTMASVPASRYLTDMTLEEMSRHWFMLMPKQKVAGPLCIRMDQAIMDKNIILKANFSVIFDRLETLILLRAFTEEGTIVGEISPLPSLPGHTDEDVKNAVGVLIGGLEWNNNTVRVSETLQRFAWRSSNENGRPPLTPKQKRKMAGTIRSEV

SMILES: C[C@H]1CN([C@@H](C)CO)C(=O)c2cccc(NC(=O)c3ccncc3)c2O[C@@H]1CN(C)Cc1ccccc1Cl
- AC50 [1]: 0.165 µM (active)

SMILES: C[C@@H](NC(=O)C[C@H]1C=C[C@@H](NC(=O)Cc2ccccn2)[C@H](CO)O1)c1ccccc1
- AbsAC35 [2]: 52.1 µM

SMILES: CC[C@H](CO)Oc1cc(NCc2cccc(N)c2)c2ncn(C(C)C)c2c1
- AC50 (Caspase-6): 1.58 µM (active)
- AC50 (Caspase-7): 4.66 µM (active)
- IC50 [3]: 1.87 µM (active)
- AC50 (Caspase-9): 46.5 µM (active)
- IC50 (Caspase-3 [4]): 8.35 µM (active)
- AC50 (Caspase-3 [5]): 3.87 µM (active)
- IC50 [6]: 1.65 µM (active)
- AC50 (Caspase-8): 31.8 µM (active)

SMILES: CCc1cccc2c(C(=O)COC(=O)c3ccccc3)c[nH]c12
- IC50 (Caspase-3 [7]): 49.9 µM (active)
- IC50 [8]: 4.08 µM (active)
- IC50 [9]: > 100 µM (inactive)
- IC50 [10]: > 100 µM (inactive)
- EC50 [11]: > 20 µM (inactive)

SMILES: C[C@@H]1CN([C@@H](C)CO)C(=O)c2cccc(NC(=O)c3ccncc3)c2O[C@H]1CN(C)Cc1ccc(-c2ccccc2)cc1
- IC50 [12]: 1.2 µM (active)
- IC50 [13]: 13.3 µM (inactive)
- IC50 [14]: 0.729 µM (active)
- AC50 [15]: 21.9 µM (active)
- AC50 [16]: 0.08 µM (active)
- IC50 [17]: 0.146 µM (active)
- IC50 [18]: 13.5 µM (active)
- IC50 [19]: 1.2 µM (active)

SMILES: O=C(O)c1[nH]c2ccc(Br)cc2c1CCN1C(=O)c2cccc([N+](=O)[O-])c2C1=O
- AC50 [20]: 23.1 µM (active)
- IC50 (Beta-lactamase [21]): > 59.6 µM (inactive)
- IC50 (Beta-lactamase [22]): > 59.6 µM (inactive)
- IC50 (Beta-lactamase [23]): > 59.6 µM (inactive)

SMILES: O=C(NC(=S)NNC(=O)c1ccccc1O)c1cccnc1
- IC50 (Albumin): > 94.1 µM (inactive)
- IC50 (Nonstructural protein 1): 7.11 µM (active)
